Measured values from ChEMBL document CHEMBL4020737, “Synthesis and cytotoxic activity of new artemisinin hybrid molecules against human leukemia cells” (Bioorg Med Chem, 2017).
pIC50: −log10 of the molar value. The source made the active and inactive calls. The rule behind the calls is not given here.

Experiments:
[1] = Resistance index, ratio of IC50 for human CEM/ADR5000 cells to IC50 for human CCRF-CEM cells; assay type: functional
CCRF-CEM = assay: Cytotoxicity against human CCRF-CEM cells assessed as reduction in cell viability after 72 hrs by resazurin reduction assay; assay type: functional, cell-based
ADR5000 cell line [2] = assay: Cytotoxicity against human CEM/ADR5000 cells assessed as reduction in cell viability after 72 hrs by resazurin reduction assay; assay type: functional, cell-based; conditions: ADR5000, 72 h
ADR5000 cell line [3] = assay: Cytotoxicity against human CEM/ADR5000 cells assessed as reduction in cell viability at 400 uM after 72 hrs by resazurin reduction assay; assay type: functional, cell-based

With COc1cccc2c1C(=O)c1c(O)c3c(c(O)c1C2=O)C[C@@](O)(C(=O)CO)C[C@@H]3O[C@H]1C[C@H](N)[C@H](O)[C@H](C)O1 [DOXORUBICIN] the “Ratio IC50” value [1] was 536.67.
In the case of CC(=O)O[C@H]1C[C@H]2[C@@H]([C@H](OC(C)=O)C[C@@H]3CC(=O)CC[C@@]32C)[C@@H]2CC[C@H]([C@H](C)CCC(=O)OCCC[C@H]3O[C@@H]4O[C@@]5(C)CC[C@H]6[C@H](C)CC[C@@H]([C@H]3C)[C@@]46OO5)[C@@]12C, the pIC50 (CCRF-CEM) was 6.72, the pIC50 (ADR5000 cell line [2]) was 5.15 and the “Ratio IC50” value [1] was 37.3.
For C[C@H]1[C@@H](CCCO)O[C@@H]2O[C@@]3(C)CC[C@H]4[C@H](C)CC[C@@H]1[C@@]24OO3, the Activity (ADR5000 cell line [3]) was “inactive”.
With COC(=O)CC[C@@H](C)[C@H]1CC[C@H]2[C@@H]3[C@H](OC(C)=O)C[C@@H]4C[C@@H](NC(=O)CCC(=O)O[C@@H]5O[C@@H]6O[C@@]7(C)CC[C@H]8[C@H](C)CC[C@@H]([C@H]5C)[C@@]68OO7)CC[C@]4(C)[C@H]3C[C@H](OC(C)=O)[C@]12C the pIC50 (CCRF-CEM) was 6.87, the pIC50 (ADR5000 cell line [2]) was 6.11 and the “Ratio IC50” value [1] was 5.7.
For COC(=O)CC[C@@H](C)[C@H]1CC[C@H]2[C@@H]3[C@H](OC(C)=O)C[C@@H]4C[C@@H](OC(=O)CCC(=O)O[C@@H]5O[C@@H]6O[C@@]7(C)CC[C@H]8[C@H](C)CC[C@@H]([C@H]5C)[C@@]68OO7)CC[C@]4(C)[C@H]3C[C@H](OC(C)=O)[C@]12C, the pIC50 (CCRF-CEM) was 7.19, the pIC50 (ADR5000 cell line [2]) was 5.93 and the “Ratio IC50” value [1] was 18.1.
With COC(=O)CC[C@@H](C)[C@H]1CC[C@H]2[C@@H]3[C@H](OC(C)=O)C[C@@H]4C[C@@H](NC(=O)C[C@H]5O[C@@H]6O[C@@]7(C)CC[C@H]8[C@H](C)CC[C@@H]([C@H]5C)[C@@]68OO7)CC[C@]4(C)[C@H]3C[C@H](OC(C)=O)[C@]12C the pIC50 (CCRF-CEM) was 7.31, the pIC50 (ADR5000 cell line [2]) was 6.25 and the “Ratio IC50” value [1] was 11.4.
In the case of COC(=O)CC[C@@H](C)[C@H]1CC[C@H]2[C@@H]3[C@H](OC(C)=O)C[C@@H]4C[C@@H](OC(=O)C[C@H]5O[C@@H]6O[C@@]7(C)CC[C@H]8[C@H](C)CC[C@@H]([C@H]5C)[C@@]68OO7)CC[C@]4(C)[C@H]3C[C@H](OC(C)=O)[C@]12C, the pIC50 (CCRF-CEM) was 7.55, the pIC50 (ADR5000 cell line [2]) was 5.89 and the “Ratio IC50” value [1] was 46.1.
With COC(=O)CC[C@@H](C)[C@H]1CC[C@H]2[C@@H]3[C@H](OC(C)=O)C[C@@H]4C[C@H](NC(=O)CCC(=O)O[C@@H]5O[C@@H]6O[C@@]7(C)CC[C@H]8[C@H](C)CC[C@@H]([C@H]5C)[C@@]68OO7)CC[C@]4(C)[C@H]3C[C@H](OC(C)=O)[C@]12C the pIC50 (CCRF-CEM) was 7.44, the pIC50 (ADR5000 cell line [2]) was 6.18 and the “Ratio IC50” value [1] was 18.2.
With COC(=O)CC[C@@H](C)[C@H]1CC[C@H]2[C@@H]3[C@H](OC(C)=O)C[C@@H]4C[C@H](OC(=O)CCC(=O)O[C@@H]5O[C@@H]6O[C@@]7(C)CC[C@H]8[C@H](C)CC[C@@H]([C@H]5C)[C@@]68OO7)CC[C@]4(C)[C@H]3C[C@H](OC(C)=O)[C@]12C the pIC50 (CCRF-CEM) was 7.46, the pIC50 (ADR5000 cell line [2]) was 6.20 and the “Ratio IC50” value [1] was 17.9.
With COC(=O)CC[C@@H](C)[C@H]1CC[C@H]2[C@@H]3[C@H](OC(C)=O)C[C@@H]4C[C@H](NC(=O)C[C@H]5O[C@@H]6O[C@@]7(C)CC[C@H]8[C@H](C)CC[C@@H]([C@H]5C)[C@@]68OO7)CC[C@]4(C)[C@H]3C[C@H](OC(C)=O)[C@]12C the pIC50 (CCRF-CEM) was 7.72, the pIC50 (ADR5000 cell line [2]) was 6.46 and the “Ratio IC50” value [1] was 18.2.
In the case of COC(=O)CC[C@@H](C)[C@H]1CC[C@H]2[C@@H]3[C@H](OC(C)=O)C[C@@H]4C[C@H](OC(=O)C[C@H]5O[C@@H]6O[C@@]7(C)CC[C@H]8[C@H](C)CC[C@@H]([C@H]5C)[C@@]68OO7)CC[C@]4(C)[C@H]3C[C@H](OC(C)=O)[C@]12C, the pIC50 (CCRF-CEM) was 7.52, the pIC50 (ADR5000 cell line [2]) was 5.90 and the “Ratio IC50” value [1] was 41.8.
